Read-outs that look alike come from different tables or passages of the source.
Tested on: NCI-H1975 (EGFR-L858R-T790M) cells
Assay: Inhibitory activity on proliferation of NCI-H1975 (EGFR-L858R-T790M) cells (CTG, 72 h)
Format: cell-based
Details: Homo sapiens
How it was run: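 IC50 values come from S-shaped dose-survival fits of CTG signal expressed as % of vehicle. Compound exposure lasted 72 h at 37 °C with 0.1% DMSO; seeding was 3000 A431 cells/well in DMEM+10% FBS and 1000 NCI-H1975 cells/well in RPMI1640+10% FBS.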

[1] = read-out: IC50 (value in brackets)

Row | SMILES | IC50 (read-out: IC50 (class symbol)) [nM] | IC50 [1] [nM]
1 | COc1cc(N2CCC(CN3CCCC4(CCN(c5ccc6c(c5)C(=O)N(C5CCC(=O)NC5=O)C6=O)CC4)C3)CC2)c(-c2cnn(C)c2)cc1Nc1ncc(Cl)c(Nc2ccc(-c3ccccc3)cc2P(C)(C)=O)n1 (stereo not drawn) [Compound 49, 5-(2-((1-(4-((5-chloro-4-((3-(dimethylphosphoryl)-[1,1′-biphenyl]-4-yl)amino)pyrimidin-2-yl)amino)-5-methoxy-2-(1-methyl-1H-pyrazol-4-yl)phenyl)piperidin-4-yl)methyl)-2,9-diazaspiro[5.5]undecan-9-yl)-2-(2,6-dioxopiperidin-3-yl)isoindoline-1,3-dione] | 100 to 500 | 266
2 | COc1cc(N2CCN(CC3CCN(c4ccc5c(c4)C(=O)N(C4CCC(=O)NC4=O)C5=O)CC3)CC2)c(-c2cnn(C)c2)cc1Nc1ncc(Cl)c(Nc2ccccc2P(C)(C)=O)n1 (stereo not drawn) [Compound 128, 5-(4-((4-(4-((5-chloro-4-((2-(dimethylphosphoryl)phenyl)amino)pyrimidin-2-yl)amino)-5-methoxy-2-(1-methyl-1H-pyrazol-4-yl)phenyl)piperazin-1-yl)methyl)piperidin-1-yl)-2-(2,6-dioxopiperidin-3-yl)isoindoline-1,3-dione] | < 100 | 25
3 | COc1cc(N2CCC3(CC2)CN(CC2CCN(c4cc5c(cc4F)C(=O)N(C4CCC(=O)NC4=O)C5=O)CC2)C3)c(-c2cnn(C)c2)cc1Nc1ncc(Cl)c(Nc2ccc(-c3ccccc3)cc2P(C)(C)=O)n1 (stereo not drawn) [Compound 94, 5-(4-((7-(4-((5-chloro-4-((3-(dimethylphosphoryl)-[1,1′-biphenyl]-4-yl)amino)pyrimidin-2-yl)amino)-5-methoxy-2-(1-methyl-1H-pyrazol-4-yl)phenyl)-2,7-diazaspiro[3.5]nonan-2-yl)methyl)piperidin-1-yl)-2-(2,6-dioxopiperidin-3-yl)-6-fluoroisoindoline-1,3-dione] | < 100 | 77
4 | COc1cc(N2CCC3(CCN(CC4CCN(c5cc6c(cc5F)C(=O)N(C5CCC(=O)NC5=O)C6=O)CC4)CC3)CC2)c(-c2cnn(C)c2)cc1Nc1ncc(Cl)c(Nc2ccc3nccnc3c2P(C)(C)=O)n1 (stereo not drawn) [Compound 27, 5-(4-((9-(4-((5-chloro-4-((5-(dimethylphosphoryl)quinoxalin-6-yl)amino)pyrimidin-2-yl)amino)-5-methoxy-2-(1-methyl-1H-pyrazol-4-yl)phenyl)-3,9-diazaspiro[5.5]undecan-3-yl)methyl)piperidin-1-yl)-2-(2,6-dioxopiperidin-3-yl)-6-fluoroisoindoline-1,3-dione] | < 100 | 20
5 | COc1cc(N2CCN(C3CN(c4ccc5c(c4)C(=O)N(C4CCC(=O)NC4=O)C5=O)C3)CC2)c(-c2cnn(C)c2)cc1Nc1ncc(Cl)c(Nc2ccccc2P(C)(C)=O)n1 (stereo not drawn) [Compound 149, 5-(3-(4-(4-((5-chloro-4-((2-(dimethylphosphoryl)phenyl)amino)pyrimidin-2-yl)amino)-5-methoxy-2-(1-methyl-1H-pyrazol-4-yl)phenyl)piperazin-1-yl)azetidin-1-yl)-2-(2,6-dioxopiperidin-3-yl)isoindoline-1,3-dione] | 100 to 500 | 116
6 | COc1cc(N2CCN(CC3CCN(c4ccc5c(c4)C(=O)N(C4CCC(=O)NC4=O)C5=O)CC3)CC2)c(-c2cnn(C)c2)cc1Nc1ncc(Br)c(Nc2ccccc2P(C)(C)=O)n1 (stereo not drawn) [Compound 127, 5-(4-((4-(4-((5-bromo-4-((2-(dimethylphosphoryl)phenyl)amino)pyrimidin-2-yl)amino)-5-methoxy-2-(1-methyl-1H-pyrazol-4-yl)phenyl)piperazin-1-yl)methyl)piperidin-1-yl)-2-(2,6-dioxopiperidin-3-yl)isoindoline-1,3-dione] | < 100 | 19

Now from value to molecule:

Row | IC50 (read-out: IC50 (class symbol)) [nM] | IC50 [1] [nM] | SMILES
7 | < 100 | 72 | COc1cc(N2CCC3(CCN(CC4CCN(c5cc6c(cc5F)C(=O)N(C5CCC(=O)NC5=O)C6=O)CC4)CC3)CC2)c(-c2cnn(C)c2)cc1Nc1ncc(Cl)c(Nc2ccc(-c3ccccc3)cc2P(C)(C)=O)n1 (stereo not drawn) [Compound 51, 5-(4-((9-(4-((5-chloro-4-((3-(dimethylphosphoryl)-[1,1′-biphenyl]-4-yl)amino)pyrimidin-2-yl)amino)-5-methoxy-2-(1-methyl-1H-pyrazol-4-yl)phenyl)-3,9-diazaspiro[5.5]undecan-3-yl)methyl)piperidin-1-yl)-2-(2,6-dioxopiperidin-3-yl)-6-fluoroisoindoline-1,3-dione]
8 | < 100 | 32 | COc1cc(N2CCC(CN3CCN(c4ccc5c(c4)CN(C4CCC(=O)NC4=O)C5=O)CC3)CC2)c(-c2cnn(C)c2)cc1Nc1ncc(Cl)c(Nc2ccccc2P(C)(C)=O)n1 (stereo not drawn) [Compound 140, 3-(5-(4-((1-(4-((5-chloro-4-((2-(dimethylphosphoryl)phenyl)amino)pyrimidin-2-yl)amino)-5-methoxy-2-(1-methyl-1H-pyrazol-4-yl)phenyl)piperidin-4-yl)methyl)piperazin-1-yl)-1-oxoisoindolin-2-yl)piperidine-2,6-dione]
9 | < 100 | 16 | COc1cc(N2CCN(C[C@H]3CCN(c4ccc5c(c4)C(=O)N(C4CCC(=O)NC4=O)C5=O)C3)CC2)c(-c2cnn(C)c2)cc1Nc1ncc(Br)c(Nc2ccccc2P(C)(C)=O)n1 (stereo partly drawn) [Compound 122, 5-((R)-3-((4-(4-((5-bromo-4-((2-(dimethylphosphoryl)phenyl)amino)pyrimidin-2-yl)amino)-5-methoxy-2-(1-methyl-1H-pyrazol-4-yl)phenyl)piperazin-1-yl)methyl)pyrrolidin-1-yl)-2-(2,6-dioxopiperidin-3-yl)isoindoline-1,3-dione]
10 | < 100 | 7 | COc1cc(N2CCC(N3CCC4(CCCN(c5ccc6c(c5)C(=O)N(C5CCC(=O)NC5=O)C6=O)C4)CC3)CC2)c(-c2cnn(C)c2)cc1Nc1ncc(Cl)c(Nc2ccc3nccnc3c2P(C)(C)=O)n1 (stereo not drawn) [Compound 11, 5-(9-(1-(4-((5-chloro-4-((5-(dimethylphosphoryl)quinoxalin-6-yl)amino)pyrimidin-2-yl)amino)-5-methoxy-2-(1-methyl-1H-pyrazol-4-yl)phenyl)piperidin-4-yl)-2,9-diazaspiro[5.5]undecan-2-yl)-2-(2,6-dioxopiperidin-3-yl)isoindoline-1,3-dione]
11 | < 100 | 64 | COc1cc(N2CCC(CN3CCN(c4ccc(C5CCC(=O)NC5=O)c(F)c4)CC3)CC2)c(-c2cnn(C)c2)cc1Nc1ncc(Cl)c(Nc2ccc(-c3ccccc3)cc2P(C)(C)=O)n1 (stereo not drawn) [Compound 156, 3-(4-(4-((1-(4-((5-chloro-4-((3-(dimethylphosphoryl)-[1,1′-biphenyl]-4-yl)amino)pyrimidin-2-yl)amino)-5-methoxy-2-(1-methyl-1H-pyrazol-4-yl)phenyl)piperidin-4-yl)methyl)piperazin-1-yl)-2-fluorophenyl)piperidine-2,6-dione]
12 | < 100 | 35 | COc1cc(N2CCN(C3CN(c4ccc5c(c4)C(=O)N(C4CCC(=O)NC4=O)C5=O)C3)CC2)c(-c2cnn(C)c2)cc1Nc1ncc(Br)c(Nc2ccccc2P(C)(C)=O)n1 (stereo not drawn) [Compound 151, 5-(3-(4-(4-((5-bromo-4-((2-(dimethylphosphoryl)phenyl)amino)pyrimidin-2-yl)amino)-5-methoxy-2-(1-methyl-1H-pyrazol-4-yl)phenyl)piperazin-1-yl)azetidin-1-yl)-2-(2,6-dioxopiperidin-3-yl)isoindoline-1,3-dione]

— patent US20240269298A1, “PHOSPHONYL DERIVATIVE, AND COMPOSITION AND PHARMACEUTICAL APPLICATION THEREOF” (XIZANG HAISCO PHARMACEUTICAL CO., LTD., priority 2021, published 2024)
